In patent publication US20240041898A9, “NEUROSTEROIDS AND ENANTIOMERS THEREOF FOR THE PREVENTION AND TREATMENT OF NEURODEGENERATIVE CONDITIONS” (priority 2019, published 2024):

System: pressure-loaded ex vivo rat retinas
Type: cell-based
Conditions: 75 mmHg; for NDS (neuronal damage score) / NDS, Average: 0-4 scale; for NDS (neuronal damage score) / NFLT vs. RT (%) / Damaged cells in GCL: 24 h, mean±SD; for NDS (neuronal damage score) / NDS, Average / Damaged cells in GCL / NFLT, Average / Damaged cell, Average: neurosteroid 1 μM; for NDS, Average / NFLT, Average / Damaged cell, Average: Average of 9; for axonal swelling in the nerve fiber layer (NFL), light micrographs: 1 μM; for NFLT vs. RT (%): neurosteroid 1 μM (Picro 1 μM, 3-MA 10 mM where named); for Damaged cell, Average: GCL
Experimental: Rat ex vivo Eyecup Preparation—Rat ex vivo eyecups were prepared from 28-32 day old male Sprague-Dawley rats (Charles River Laboratories International Inc., Wilmington, MA). The anterior half of the enucleated eyes was carefully removed to make eyecup preparations. Eyecups were placed at the bottom of a 100 ml glass beaker filled with aCSF (artificial cerebrospinal fluid) containing (in mM): 124 NaCl, 5 KCl, 2 MgSO4, 2 CaCl2, 1.25 NaH2PO4, 22 NaHCO3, and 10 glucose, and incubated at 30° C. for 24 hours using a closed pressure-loading system (FIG. 1C). pH was maintained at 7.35 to 7.40. In the closed-pressure system, a glass beaker with the eyecup was placed at the bottom of an acrylic pressure chamber (2,000 ml volume). A 95% O2-5% CO2 gas mixture was delivered through disposable plastic tubing with an infusion valve and a control dial on the lid of the pressure chamber and an air filter (Cat #SLGP033RS, Merck Millipore, Billerica, MA). The plastic tubing delivering the gas terminated 1 cm above the bottom of the beaker.
Acutely prepared eyecups were incubated in gassed aCSF for at least 1 h at 30° C. before pressure loading. In some experiments, AlloP (1 μM), ent-AlloP (1 μM), and 3-MA (10 mM) were dissolved in aCSF at the time of experiment and administered by bath perfusion. Eyecup preparations were treated with these drugs for 1 h at 30° C. before pressure loading. For pressure loading, the 95% O2-5% CO2 gas mixture was infused until the pressure reading given by a manometer reached the appropriate level. The pressure was then locked by adjusting the control dial of the effusion valve, and monitored continuously for 24 h at 30° C.
Data analysis of morphometry—The middle portion of the retina was examined, greater than 1,200 μm away from the center of the optic disc along the inner limiting membrane (ILM). The nerve fiber layer thickness (NFLT) was measured by light microscopy along 5 lines perpendicular to the pigment epithelium at a distance of 15 μm from each other around 1,200 μm away from the center of the optic disc. The average NFLT was determined in 9 different light micrographs taken from 5 eyecup samples in each condition, divided by total retinal thickness, and mean±standard deviation (%) was analyzed and compared with control.
The density of degenerated cells characterized by nuclear chromatin clumping or necrosis in the GCL was determined by counting 9 fields of 500 μm length in light micrographs taken from the block of the middle retinal part 950 to 1450 μm away from the center of the optic disc.
The severity of neuronal damage was assessed by light microscopy using a neuronal damage score (NDS). The NDS was determined in 9 different light micrographs taken from 5 eyecup samples in each condition. The NDS rates neuronal damage in the inner nuclear layer (INL) and the inner plexiform layer (IPL) on a 0-4 scale with 0 signifying no neuronal damage and 4 indicating very severe damage. Criteria used in establishing the degree of neuronal damage included the extent of cytoplasmic swelling in the IPL and the number of neurons in the INL showing signs of severe cytoplasmic swelling and coarse clumping of nuclear chromatin. The highest NDS rating (4) is given when the IPL discloses apparent spongiform appearance due to dendritic swelling and when most cell bodies in the INL show severe cytoplasmic swelling and coarse clumping of nuclear chromatin. If the damage is of a lesser degree, a rating of 3 is given. NDS 2 is assigned when cell bodies in the INL are sporadically swollen. […] Fine dendritic swelling in a limited area of the IPL without damage in the INL is described by NDS 1.
NFLT, density of degenerated cells in the GCL, and NDS were determined as the measurement of 10 different areas from three eyes per experimental condition. These morphometrical parameters were assessed by three raters, who remained unaware of the experimental condition. […]

CC(=O)[C@@H]1CC[C@@H]2[C@H]3CC[C@@H]4C[C@@H](O)CC[C@@]4(C)[C@@H]3CC[C@]21C [ent-AlloP, ent-allopregnanolone]
NDS (neuronal damage score): 0.2 ± 0.4 | NDS, Average: 0.2 | axonal swelling in the nerve fiber layer (NFL), light micrographs: substantially inhibited | NFLT vs. RT (%): 1.6 ± 0.6% | Damaged cells in GCL: 1.9 ± 1.2 per 250 μm of retina | NFLT, Average: 1.6% | Damaged cell, Average: 1.9

CC(=O)[C@H]1CC[C@H]2[C@@H]3CC[C@H]4C[C@H](O)CC[C@]4(C)[C@H]3CC[C@]12C [AlloP, allopregnanolone]
NDS (neuronal damage score): 0.2 ± 0.4 | NDS, Average: 0.2 | axonal swelling in the nerve fiber layer (NFL), light micrographs: attenuated | NFLT vs. RT (%): 1.5 ± 0.6% | Damaged cells in GCL: 2.0 ± 1.7 per 250 μm of retina | NFLT, Average: 1.5% | Damaged cell, Average: 2.0
